Test results taken from US11492338B2, “Furan surfactant compositions and methods” (SIRONIX RENEWABLES, INC., priority 2020, dated 2022).
Converted amounts (≈) assume the structure as drawn. Read-outs that look alike come from different tables or passages of the source. Marks after values point to notes of the source that are not given here.

How the values were obtained:
[1] = Calcium tolerance (Ca^2+ from CaCl2 until sustained precipitate); format: physicochemical; conditions: ppm of Ca^2+ from CaCl2 where sustained precipitate is noted; for Calcium Tolerance: Table 2; for Ca^2+ Tolerance: Table 3
Procedure: (§1) Synthesized surfactants including the structure depicted in Experimental Structure 1, as well as the corresponding Na, Li, NH4, and Mg surfactants, were tested to determine surfactant properties. These included the time required for the surfactant solution to wet cotton fabric, the amount of foam the surfactant generates when agitated, the tolerance of the surfactant to calcium ions in solution as a measure of surfactant performance in hard water, and the temperature below which the surfactant forms a solid precipitate, known as the Krafft Point.

Krafft point = format: physicochemical
Procedure: as §1

[2] = Solubility in deionized water at 20° C.; format: physicochemical
[3] = Critical micelle concentration (CMC); format: physicochemical
[4] = Surface tension at critical micelle concentration; format: physicochemical
[5] = Stability tracking of oleo-furan sulfonic acid by liquid chromatography; format: physicochemical; conditions: 8-week time course, room temperature and elevated temperature (42° C.)
Excerpt: Another advantage of surfactant embodiments disclosed herein is their inherent stability, particularly in the acid form prior to neutralization (oleo-furan sulfonic acids). As noted elsewhere herein, structural stability is an issue in the production of the common anionic surfactant SLES, causing occasional ring closure of the labile ethoxy chain during ethoxylation and sulfation step, which leads to the formation of a carcinogenic byproduct (e.g., 1,4-dioxane).
The calcium and magnesium monoanionic surfactants were both observed to have high foaming and foam stability, which is attractive for a number of applications including home cleaning, personal care, detergents, cosmetics, ore floatation and oil recovery. […] Stability of the oleo-furan surfactant, specifically the acid form oleo-furan sulfonic acid that is a precursor to the calcium and other cation surfactants, was measured over an eight week time course at room temperature and elevated temperatures, the results of which can be seen in FIG. 1.

[6] = water; common sodium surfactants; cited from earlier work

| Molecule | Calcium Tolerance [1] | Krafft Point (Krafft point; Table 2) [°C] | CMC (critical micelle concentration) ([3]; Table 2) [ppm] | Surface Tension at critical micelle concentration ([4]; Table 2) [mN/m] | Solubility ([2]; Table 2) [mg/mL] | also measured |
| --- | --- | --- | --- | --- | --- | --- |
| CCCCCCCCCCCC(=O)c1cc(S(=O)(=O)O)c(C)o1 [Ca^2+] | >50,000 ppm | <0 | 300 | 33 | – | Solubility ([2]; Table 2, read-out: Solubility): 350 mg/mL (≈ 1020 mM) |
| CCCCCCCCCCCC(=O)c1cc(S(=O)(=O)[O-])c(C)o1.[Li+] [Li^+] | >50,000 ppm | <0 | 1347 | 45 | 300 | – |
| CCCCCCCCCCCC(=O)c1cc(S(=O)(=O)[O-])c(C)o1.CCCCCCCCCCCC(=O)c1cc(S(=O)(=O)[O-])c(C)o1.[Mg+2] [Mg^2+] | >50,000 ppm | 20 | – | – | 10 | Surface Tension ([4]; Table 2, recorded for saturated surfactant solution at 20° C.): 38* mN/m |
| CCCCCCCCCCCC(=O)c1cc(S(=O)(=O)O)c(C)o1.N [NH4^+] | >50,000 ppm | <0 | 3309 | 39 | 1000 | – |
| CCCCCCCCCCCC(=O)c1ccc(S(=O)(=O)[O-])o1.[Na+] [Na^+ OFS-12-1/0] | – | – | – | – | – | Ca^2+ Tolerance [1]: >50,000 ppm; Krafft Point (Krafft point; Table 3): <0 °C; CMC (critical micelle concentration) ([3]; Table 3): 1735 ppm; Surface Tension at critical micelle concentration ([4]; Table 3): 44 mN/m |
| CCCCCCCCCCCC(=O)c1cc(S(=O)(=O)[O-])c(C)o1.[Na+] [Na^+] | >50,000 ppm | <0 | 1480 | 42 | – | Ca^2+ Tolerance [1]: >50,000 ppm; Krafft Point (Krafft point; Table 3): <0 °C; CMC (critical micelle concentration) ([3]; Table 3): 1480 ppm; Surface Tension at critical micelle concentration ([4]; Table 3): 42 mN/m |
| CCCCCCCCCCCCOCCOCCOCCOS(=O)(=O)[O-].[Na+] [SLES, sodium lauryl ether sulfate, reference compound] | >50,000 ppm | <0 | 449 | 32 | ≥1000 | – |
| CCCCCCCCCCCC(=O)c1cc(S(=O)(=O)O)c(C)o1 [oleo-furan sulfonic acids] | – | – | – | – | – | degradation or byproduct formation by liquid chromatography [5]: negligible degradation or byproduct formation |
| sodium dodecylbenzene sulfonate | – | – | – | – | – | Solubility [6]: 250 mg/mL |
